# Literature values, collected in US20040253138A1, “Plasmon enhanced body treatment and bacterial management” (American Environmental Systems, Inc., priority 2003, published 2004).
# Where two headings read alike, the source gives them in different places.
# System: E. coli (E. coli-B (SR-9) and E. coli K-12)
# Details: one hour exposure
Compound,logs of inactivation (30 ppm hydrogen peroxide),logs of inactivation (30 ppb silver)
OO [hydrogen peroxide],0.65 logs,–
[Ag+] [silver],–,2.87 logs
